{
  "source": "patent US4257941A",
  "about": "“Polycyclic nitrogen-containing compounds” (BASF Aktiengesellschaft, priority 1976, dated 1981)",
  "format_in_all_cases": "in vivo",
  "key": {"Hordeum vulgare": {"tested_on": "Hordeum vulgare", "experiment": "Growth height of young cereal plants (Example 11, Table A)", "conditions": "soil treatment", "source_text": "(§1) The vessels used for the experiments were plastic pots having a volume of 1,130 cm^3 (Table A) or paraffined paper cups having a volume of 170 cm^3 (Table B). The pots and cups were filled with a sandy loam. The seeds of the test plants-separated by species-were sown shallow. Preemergence treatment (soil treatment) was effected immediately after sowing and before germination of the seeds. Seeds lying on the surface came into contact with the active ingredients. Postemergence treatment (leaf treatment) took place at an average growth height of the plants (depending on the rate of growth) of from 6 to 10 cm. The substances were suspended, emulsified or dissolved in water as diluent and applied by means of fine nozzles. The vessels were kept in the greenhouse in a temperature range of 12° C. to 25° C., and were regularly sprinkler irrigated for the duration of the experiment. The observation period was 6 to 8 weeks."}, "Triticum aestivum": {"tested_on": "Triticum aestivum", "experiment": "Growth height of young cereal plants (Example 11, Table A)", "source_text": "as §1"}, "Cynodon dactylon": {"tested_on": "Cynodon dactylon", "experiment": "Growth-regulating action, postemergence, greenhouse (Example 35, Table 1)", "conditions": "for growth height relative: control 100", "source_text": "as §1\n(§2) Further experiments were carried out in the greenhouse under the condition described in Example 11. […] As the plants which were examined liked the warmth (Eupghorbia geniculate, Arachis hypogaea, Cynodon dactylon), they were kept at from 20°-30° C. Cynodon dactylon from seed was cut once and the young growth treated postemergence."}, "Arachis hypogaea": {"tested_on": "Arachis hypogaea", "experiment": "Growth-regulating action, postemergence, greenhouse (Example 35, Table 1)", "conditions": "for growth height relative: control 100", "source_text": "as §1, §2"}},
  "data": [
    {"compound": "Clc1cccc(N2N=NC3C4CC(C5N=NC45)C32)c1", "note": "(stereo not shown) [drawing 364]", "values": [
      {"measurement": "Growth height", "setting": "Hordeum vulgare; 0.5 kg/ha", "result": 43, "unit": "cm"},
      {"measurement": "Growth height", "setting": "Hordeum vulgare; 1.0 kg/ha", "result": 40, "unit": "cm"},
      {"measurement": "Growth height", "setting": "Hordeum vulgare; 2.0 kg/ha", "result": 30, "unit": "cm"},
      {"measurement": "Growth height", "setting": "Triticum aestivum; leaf treatment, 0.25 kg/ha", "result": 29, "unit": "cm"},
      {"measurement": "Growth height", "setting": "Triticum aestivum; leaf treatment, 0.5 kg/ha", "result": 25, "unit": "cm"},
      {"measurement": "Growth height", "setting": "Triticum aestivum; leaf treatment, 1.0 kg/ha", "result": 13, "unit": "cm"},
      {"measurement": "Growth height", "setting": "Triticum aestivum; leaf treatment, 2.0 kg/ha", "result": 12, "unit": "cm"},
      {"measurement": "Growth height", "setting": "Triticum aestivum; soil treatment, 0.25 kg/ha", "result": 26, "unit": "cm"},
      {"measurement": "Growth height", "setting": "Triticum aestivum; soil treatment, 0.5 kg/ha", "result": 15, "unit": "cm"}
    ]},
    {"compound": "c1cc2sncc2cc1N1N=NC2C3CC(C4N=NC34)C21", "note": "(stereo not shown) [drawing 368]", "values": [
      {"measurement": "Growth height", "setting": "Hordeum vulgare; 0.5 kg/ha", "result": 36, "unit": "cm"},
      {"measurement": "Growth height", "setting": "Hordeum vulgare; 1.0 kg/ha", "result": 39, "unit": "cm"},
      {"measurement": "Growth height", "setting": "Hordeum vulgare; 2.0 kg/ha", "result": 31, "unit": "cm"},
      {"measurement": "Growth height", "setting": "Triticum aestivum; leaf treatment, 0.25 kg/ha", "result": 30, "unit": "cm"},
      {"measurement": "Growth height", "setting": "Triticum aestivum; leaf treatment, 0.5 kg/ha", "result": 23, "unit": "cm"},
      {"measurement": "Growth height", "setting": "Triticum aestivum; leaf treatment, 1.0 kg/ha", "result": 26, "unit": "cm"},
      {"measurement": "Growth height", "setting": "Triticum aestivum; leaf treatment, 2.0 kg/ha", "result": 20, "unit": "cm"},
      {"measurement": "Growth height", "setting": "Triticum aestivum; soil treatment, 0.25 kg/ha", "result": 32, "unit": "cm"},
      {"measurement": "Growth height", "setting": "Triticum aestivum; soil treatment, 0.5 kg/ha", "result": 28, "unit": "cm"},
      {"measurement": "Growth height", "setting": "Triticum aestivum; soil treatment, 1.0 kg/ha", "result": 20, "unit": "cm"},
      {"measurement": "Growth height", "setting": "Triticum aestivum; soil treatment, 2.0 kg/ha", "result": 23, "unit": "cm"}
    ]},
    {"compound": "Clc1ccc(CN2N=NC3C4CC(C5N=NC45)C32)cc1", "note": "(stereo not shown)", "values": [
      {"measurement": "Growth height", "setting": "Hordeum vulgare; 0.5 kg/ha", "result": 48, "unit": "cm"},
      {"measurement": "Growth height", "setting": "Hordeum vulgare; 1.0 kg/ha", "result": 44, "unit": "cm"},
      {"measurement": "Growth height", "setting": "Hordeum vulgare; 2.0 kg/ha", "result": 41, "unit": "cm"},
      {"measurement": "Growth height", "setting": "Triticum aestivum; leaf treatment, 0.5 kg/ha", "result": 40, "unit": "cm"},
      {"measurement": "Growth height", "setting": "Triticum aestivum; leaf treatment, 1.0 kg/ha", "result": 39, "unit": "cm"},
      {"measurement": "Growth height", "setting": "Triticum aestivum; leaf treatment, 2.0 kg/ha", "result": 40, "unit": "cm"},
      {"measurement": "Growth height", "setting": "Triticum aestivum; soil treatment, 0.5 kg/ha", "result": 40, "unit": "cm"},
      {"measurement": "Growth height", "setting": "Triticum aestivum; soil treatment, 1.0 kg/ha", "result": 40, "unit": "cm"},
      {"measurement": "Growth height", "setting": "Triticum aestivum; soil treatment, 2.0 kg/ha", "result": 30, "unit": "cm"}
    ]},
    {"compound": "FC(F)(F)c1cccc(N2C3C4CC(C5N=NC45)C32)c1", "note": "(stereo not shown) [drawing 434]", "values": [
      {"measurement": "Growth height", "setting": "Cynodon dactylon; 0.5 kg/ha", "result": 4, "unit": "cm"},
      {"measurement": "growth height relative", "setting": "Cynodon dactylon; 0.5 kg/ha", "result": 36},
      {"measurement": "Growth height", "setting": "Cynodon dactylon; 1.0 kg/ha", "result": 4, "unit": "cm"},
      {"measurement": "growth height relative", "setting": "Cynodon dactylon; 1.0 kg/ha", "result": 36},
      {"measurement": "Growth height", "setting": "Cynodon dactylon; 2.0 kg/ha", "result": 3, "unit": "cm"},
      {"measurement": "growth height relative", "setting": "Cynodon dactylon; 2.0 kg/ha", "result": 27},
      {"measurement": "Growth height", "setting": "Arachis hypogaea; 0.25 kg/ha", "result": 8, "unit": "cm"},
      {"measurement": "growth height relative", "setting": "Arachis hypogaea; 0.25 kg/ha", "result": 50},
      {"measurement": "Growth height", "setting": "Arachis hypogaea; 0.5 kg/ha", "result": 8, "unit": "cm"},
      {"measurement": "growth height relative", "setting": "Arachis hypogaea; 0.5 kg/ha", "result": 50},
      {"measurement": "Growth height", "setting": "Arachis hypogaea; 1.0 kg/ha", "result": 7.5, "unit": "cm"},
      {"measurement": "growth height relative", "setting": "Arachis hypogaea; 1.0 kg/ha", "result": 47},
      {"measurement": "Growth height", "setting": "Arachis hypogaea; 2.0 kg/ha", "result": 5, "unit": "cm"},
      {"measurement": "growth height relative", "setting": "Arachis hypogaea; 2.0 kg/ha", "result": 31}
    ]},
    {"compound": "Brc1ccccc1N1N=NC2C3CC(C4N=NC34)C21", "note": "(stereo not shown) [drawing 365]", "values": [
      {"measurement": "Growth height", "setting": "Hordeum vulgare; 0.5 kg/ha", "result": 40, "unit": "cm"},
      {"measurement": "Growth height", "setting": "Hordeum vulgare; 1.0 kg/ha", "result": 42, "unit": "cm"},
      {"measurement": "Growth height", "setting": "Hordeum vulgare; 2.0 kg/ha", "result": 31, "unit": "cm"},
      {"measurement": "Growth height", "setting": "Triticum aestivum; leaf treatment, 0.5 kg/ha", "result": 35, "unit": "cm"},
      {"measurement": "Growth height", "setting": "Triticum aestivum; leaf treatment, 1.0 kg/ha", "result": 33, "unit": "cm"},
      {"measurement": "Growth height", "setting": "Triticum aestivum; leaf treatment, 2.0 kg/ha", "result": 33, "unit": "cm"},
      {"measurement": "Growth height", "setting": "Triticum aestivum; soil treatment, 0.5 kg/ha", "result": 22, "unit": "cm"},
      {"measurement": "Growth height", "setting": "Triticum aestivum; soil treatment, 1.0 kg/ha", "result": 12, "unit": "cm"},
      {"measurement": "Growth height", "setting": "Triticum aestivum; soil treatment, 2.0 kg/ha", "result": 10, "unit": "cm"}
    ]},
    {"compound": "Brc1cccc(N2N=NC3C4CC(C5N=NC45)C32)c1", "note": "(stereo not shown) [drawing 366]", "values": [
      {"measurement": "Growth height", "setting": "Hordeum vulgare; 0.5 kg/ha", "result": 38, "unit": "cm"},
      {"measurement": "Growth height", "setting": "Hordeum vulgare; 1.0 kg/ha", "result": 30, "unit": "cm"},
      {"measurement": "Growth height", "setting": "Hordeum vulgare; 2.0 kg/ha", "result": 27, "unit": "cm"},
      {"measurement": "Growth height", "setting": "Triticum aestivum; leaf treatment, 0.5 kg/ha", "result": 33, "unit": "cm"},
      {"measurement": "Growth height", "setting": "Triticum aestivum; leaf treatment, 1.0 kg/ha", "result": 28, "unit": "cm"},
      {"measurement": "Growth height", "setting": "Triticum aestivum; leaf treatment, 2.0 kg/ha", "result": 17, "unit": "cm"},
      {"measurement": "Growth height", "setting": "Triticum aestivum; soil treatment, 0.5 kg/ha", "result": 24, "unit": "cm"},
      {"measurement": "Growth height", "setting": "Triticum aestivum; soil treatment, 1.0 kg/ha", "result": 20, "unit": "cm"},
      {"measurement": "Growth height", "setting": "Triticum aestivum; soil treatment, 2.0 kg/ha", "result": 16, "unit": "cm"}
    ]},
    {"compound": "O=[N+]([O-])c1cccc(N2N=NC3C4CC(C5N=NC45)C32)c1", "note": "(stereo not shown)", "values": [
      {"measurement": "Growth height", "setting": "Hordeum vulgare; 0.5 kg/ha", "result": 36, "unit": "cm"},
      {"measurement": "Growth height", "setting": "Hordeum vulgare; 1.0 kg/ha", "result": 36, "unit": "cm"},
      {"measurement": "Growth height", "setting": "Hordeum vulgare; 2.0 kg/ha", "result": 29, "unit": "cm"},
      {"measurement": "Growth height", "setting": "Triticum aestivum; leaf treatment, 0.5 kg/ha", "result": 28, "unit": "cm"},
      {"measurement": "Growth height", "setting": "Triticum aestivum; leaf treatment, 1.0 kg/ha", "result": 28, "unit": "cm"},
      {"measurement": "Growth height", "setting": "Triticum aestivum; leaf treatment, 2.0 kg/ha", "result": 17, "unit": "cm"},
      {"measurement": "Growth height", "setting": "Triticum aestivum; soil treatment, 0.5 kg/ha", "result": 26, "unit": "cm"},
      {"measurement": "Growth height", "setting": "Triticum aestivum; soil treatment, 1.0 kg/ha", "result": 26, "unit": "cm"},
      {"measurement": "Growth height", "setting": "Triticum aestivum; soil treatment, 2.0 kg/ha", "result": 13, "unit": "cm"}
    ]}
  ]
}
